In ChEMBL document CHEMBL5608246, “Membrane-Targeting Amphiphilic Honokiol Derivatives Containing an Oxazole Moiety as Potential Antibacterials against Methicillin-Resistant Staphylococcus aureus” (J Med Chem, 2024) one finds MIC, selectivity ratio and HC50 data, which are given here for six compounds.

≈ marks a conversion by molar mass, not a printed value. Where only a bound is given, the exact number is not on record here.

Data set [1] has as its system Staphylococcus aureus. Put plainly: Antibacterial activity against methicillin resistant Staphylococcus aureus M21 incubated for 16 to 18 hrs by broth dilution method. The data set is classed as functional. Particulars: time 16-18 hrs.
In data set [2] the test system is Staphylococcus aureus. Put plainly: Antibacterial activity against methicillin resistant Staphylococcus aureus M16 incubated for 16 to 18 hrs by broth dilution method. The data set is classed as functional. Particulars: time 16-18 hrs.
The next data set has as its system Escherichia coli. Put plainly: Antibacterial activity against Escherichia coli ATCC 25922 incubated for 16 to 18 hrs by broth dilution method. Format: functional. The note with it: time 16-18 hrs.
Data set [3] relates to Staphylococcus aureus. Briefly: Antibacterial activity against methicillin resistant Staphylococcus aureus M20 incubated for 16 to 18 hrs by broth dilution method. Format: functional. The note with it: time 16-18 hrs.
In data set [4] the test system is Staphylococcus aureus. Put plainly: Antibacterial activity against methicillin resistant Staphylococcus aureus M14 incubated for 16 to 18 hrs by broth dilution method. The data set is classed as functional. The note with it: time 16-18 hrs.
Data set [5] has as its system Staphylococcus aureus. Put plainly: Antibacterial activity against methicillin resistant Staphylococcus aureus M13 incubated for 16 to 18 hrs by broth dilution method. Particulars: time 16-18 hrs. Format: functional.
In data set [6] the test system is Staphylococcus aureus. Put plainly: Antibacterial activity against methicillin resistant Staphylococcus aureus M22 incubated for 16 to 18 hrs by broth dilution method. Format: functional. Particulars: time 16-18 hrs.
In data set [7] the test system is Staphylococcus aureus. Briefly: Antibacterial activity against methicillin resistant Staphylococcus aureus M23 incubated for 16 to 18 hrs by broth dilution method. Format: functional. The note with it: time 16-18 hrs.
A short description of data set [8]: Selectivity index, ratio of HC50 for sheep RBC to MIC for Staphylococcus aureus ATCC 29213. The note with it: sheep red blood cells, read-out: Selectivity Index. The data set is classed as toxicity.
Data set [9] relates to Staphylococcus aureus. Briefly: Antibacterial activity against Staphylococcus aureus ATCC 29213 incubated for 16 to 18 hrs by broth dilution method. The note with it: time 16-18 hrs. Format: functional.
The subject of data set [10] is Staphylococcus aureus. Briefly: Antibacterial activity against methicillin resistant Staphylococcus aureus M11 incubated for 16 to 18 hrs by broth dilution method. The data set is classed as functional. Particulars: time 16-18 hrs.
The subject of data set [11] is Staphylococcus aureus. Put plainly: Antibacterial activity against methicillin resistant Staphylococcus aureus M17 incubated for 16 to 18 hrs by broth dilution method. The data set is classed as functional. The note with it: time 16-18 hrs.
Data set [12] relates to Staphylococcus aureus. Briefly: Antibacterial activity against methicillin resistant Staphylococcus aureus M12 incubated for 16 to 18 hrs by broth dilution method. Particulars: time 16-18 hrs. The data set is classed as functional.
Data set [13] has as its system Staphylococcus aureus. Briefly: Antibacterial activity against methicillin resistant Staphylococcus aureus N315 incubated for 16 to 18 hrs by broth dilution method. The data set is classed as functional. The note with it: time 16-18 hrs.
Data set [14] in a line: Hemolytic activity in sheep RBC incubated for 1 hr. The data set is classed as toxicity, cell-based, Ovis aries, Erythrocyte. Particulars: sheep red blood cells (erythrocytes).

Regarding `C=CCc1cc(-c2ccc(OCCC[N+](C)(C)CC(=O)NCCCC)c(CC=C)c2)c2oc(-c3ccc(OC)cc3)nc2c1.[Br-]`, the MIC is 2 mg/L in the data set with Staphylococcus aureus [1]; 2 mg/L with Staphylococcus aureus [2]; more than 128 mg/L against Escherichia coli; 2 mg/L against Staphylococcus aureus [3]; 2 mg/L in the data set with Staphylococcus aureus [4]; 4 mg/L with Staphylococcus aureus [5]. Moreover, the MIC with Staphylococcus aureus [6] was 2 mg/L; in the data set with Staphylococcus aureus [7], 2 mg/L; with Staphylococcus aureus [9], 8 mg/L; against Staphylococcus aureus [10], 2 mg/L; in the data set on Staphylococcus aureus [11], 4 mg/L; in the data set with Staphylococcus aureus [12], 4 mg/L. Inhibition of growth in the data set with Staphylococcus aureus [13] (MIC) required 4 mg/L. Further, the selectivity ratio in data set [8] is more than 40. In data set [14], this compound registered an HC50 at 1 h of 320 µg/mL.

As to `C=CCc1cc(-c2ccc(OCCC[N+](C)(C)CC(=O)NCCCC)c(CC=C)c2)c2oc(-c3cccc(Cl)c3Cl)nc2c1.[Br-]`, the MIC against Staphylococcus aureus [1] came to 8 mg/L; against Staphylococcus aureus [2] it was 8 mg/L; in the data set on Escherichia coli, 128 mg/L; in the data set with Staphylococcus aureus [3], 4 mg/L; against Staphylococcus aureus [4] it was 4 mg/L; against Staphylococcus aureus [5], 16 mg/L. For the same compound, the MIC worked out at 8 mg/L in the data set with Staphylococcus aureus [6]; 8 mg/L in the data set on Staphylococcus aureus [7]; 32 mg/L with Staphylococcus aureus [9]; 16 mg/L against Staphylococcus aureus [10]; 4 mg/L in the data set with Staphylococcus aureus [11]; 8 mg/L against Staphylococcus aureus [12]. Moreover, the lowest concentration to inhibit growth in the data set on Staphylococcus aureus [13] (MIC) was 8 mg/L. Besides, in data set [8], the selectivity ratio is 1.2. The compound further came in with an HC50 at 1 h in [14] of 39.5 µg/mL.

Consider `C=CCc1cc(-c2ccc(OCCC[N+](C)(C)CC(=O)NCCCC)c(CC=C)c2)c2oc(-c3cc(Cl)cc(Cl)c3)nc2c1.[Br-]`, for which the MIC with Staphylococcus aureus [1] is 32 mg/L; in the data set with Staphylococcus aureus [2], 64 mg/L; in the data set on Escherichia coli, more than 128 mg/L; with Staphylococcus aureus [3], 128 mg/L; in the data set with Staphylococcus aureus [4] it was 64 mg/L; with Staphylococcus aureus [5] it was 32 mg/L. Also, the MIC in the data set on Staphylococcus aureus [6] was 128 mg/L; against Staphylococcus aureus [7], 128 mg/L; in the data set with Staphylococcus aureus [9], 128 mg/L; against Staphylococcus aureus [10], more than 128 mg/L; against Staphylococcus aureus [11] it was 32 mg/L; against Staphylococcus aureus [12], 128 mg/L. Further, the MIC against Staphylococcus aureus [13] was 128 mg/L. For the same compound, in data set [8], the selectivity ratio came to 0.6. Further, in data set [14], the HC50 at 1 h came out at 81.3 µg/mL.

Compound `C[C@@H](O)[C@H]1C(=O)N2C(C(=O)O)=C(S[C@@H]3CN[C@H](C(=O)N(C)C)C3)[C@H](C)[C@H]12` [MEROPENEM] came in with an MIC in the data set on Escherichia coli of 0.063 mg/L (≈ 0.164 µM).

Turning to `C=CCc1cc(-c2ccc(OCCC[N+](C)(C)CC(=O)NCCCC)c(CC=C)c2)c2oc(-c3ccc(Cl)cc3F)nc2c1.[Br-]`, the MIC was 128 mg/L against Staphylococcus aureus [1]; 128 mg/L in the data set with Staphylococcus aureus [2]; 128 mg/L with Escherichia coli; 128 mg/L against Staphylococcus aureus [3]; 64 mg/L against Staphylococcus aureus [4]; more than 128 mg/L with Staphylococcus aureus [5]. The minimal inhibitory concentration (MIC) in the data set with Staphylococcus aureus [6] was 128 mg/L; against Staphylococcus aureus [7], 128 mg/L; in the data set with Staphylococcus aureus [9] it was more than 128 mg/L; with Staphylococcus aureus [10] it was more than 128 mg/L; in the data set on Staphylococcus aureus [11], 128 mg/L; with Staphylococcus aureus [12], 128 mg/L. This compound also came in with an MIC against Staphylococcus aureus [13] of more than 128 mg/L. In data set [14], this compound registered a concentration for 50% haemolysis (HC50) at 1 h of more than 640 µg/mL.

As to `C=CCc1cc(-c2ccc(OCCC[N+](C)(C)CC(=O)NCCCC)c(CC=C)c2)c2oc(-c3ccc(Cl)cc3Br)nc2c1.[Br-]`, the MIC was more than 128 mg/L with Staphylococcus aureus [1]; 128 mg/L in the data set with Staphylococcus aureus [2]; more than 128 mg/L with Escherichia coli; more than 128 mg/L with Staphylococcus aureus [3]; 128 mg/L in the data set with Staphylococcus aureus [4]; more than 128 mg/L with Staphylococcus aureus [5]. Moreover, the minimum inhibitory concentration (MIC) was 128 mg/L in the data set with Staphylococcus aureus [6]; more than 128 mg/L in the data set on Staphylococcus aureus [7]; more than 128 mg/L with Staphylococcus aureus [9]; 128 mg/L against Staphylococcus aureus [10]; more than 128 mg/L with Staphylococcus aureus [11]; more than 128 mg/L with Staphylococcus aureus [12]. In the data set with Staphylococcus aureus [13], this compound had a minimum inhibitory concentration (MIC) of more than 128 mg/L. In data set [14], this compound had an HC50 at 1 h of more than 320 µg/mL.
